Values joined by “and” are separate entries in the source; they are usually repeats but may differ in a detail not shown here. Equal values may be shown once.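 Step 1: Grow cells in 96-well plates. Step 2: Expose to compound for 48 hours at 5 concentrations. Step 3: Interpolate endpoints linearly; if unreached, use highest concentration. At the GI50, growth is halved. Definition used: TGI = concentration required for complete inhibition of growth.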

What all share (assay): NCI anticancer screen, dose series, 48 h
Test [1] relates to MDA-MB-231 breast.
Test [2] has as its system IGROV1 ovarian.
Test [3] has as its system MDA-MB-435.
For test [4], the system named is SNB-19 CNS.
Test [5] concerns SF-539 CNS.
The test system of test [6] is NCI-H23 lung.
Test [7] relates to HT29 colon.
Test [8] deals with CAKI-1 renal.
Test [9] deals with OVCAR-8 ovarian.
Test [10] has as its system MCF7 breast.

Regarding `O=C(/C=C/C12c3ccccc3C(c3ccccc31)C1C(=O)NC(=O)C12)c1ccccn1` (stereo not drawn), the GI50 in test [1] was 1.49 µM; in [2], 1.36 µM; in test [3], 1.77 µM; in [4], 1.53 µM; in test [5] it was 2.04 µM; in [6], 1.89 µM. Also, the GI50 in test [7] is 1.86 µM; in test [8], 1.66 µM; in test [9], 1.8 µM; in [10] it was 0.562 µM. Further, the TGI in [1] was 4.44 µM; in test [2], 6.53 µM; in [3], 5.15 µM; in test [4], 3.22 µM; in [5], 4.65 µM; in test [6], 4.07 µM. For the same molecule, the TGI in [7] was 4.56 µM; in test [8] it was 4.38 µM; in [9] it was 5.54 µM; in [10], 2.43 µM.
Consider `O=C1C=C[C@H](O)[C@@]2(CO)O[C@@H]12`, for which the GI50 in [1] is 15.5 µM; in [2] it was 10.1 µM; in test [3], 9.92 µM; in test [4], 18.9 µM; in test [5], 11.6 µM; in [6] it was 15.8 µM. Moreover, the GI50 is 6.32 µM in test [7], 3.04 µM in test [8], 13.2 µM in [9] and 5.38 µM in test [10]. Besides, the TGI in test [1] is 30.1 µM; in [2] it was 29.8 µM; in test [3], more than 51.5 µM; in test [4], 48.9 µM; in test [5] it was 25.6 µM; in [6] it was 31.3 µM. Further, the TGI was determined as 19.7 µM in test [7], 19.3 µM in [8], 31.9 µM in test [9] and 23.8 µM in [10].
Turning to `c1ccc(-c2[nH]ncc2-c2ccnc(-c3ccc(OCCn4ccnc4)cc3)c2)nc1`, the GI50 is more than 25 µM in [1]; more than 25 µM in [2]; 24.5 µM in test [3]; more than 25 µM in test [4]; more than 25 µM in test [5]; more than 25 µM in [6]. The GI50 was more than 25 µM in test [7], more than 25 µM in test [8], 14.4 µM in test [9] and more than 25 µM in [10]. Moreover, the TGI in [1], in test [2], in [3], in [4], in test [5] and in [6] was more than 25 µM in each case. Moreover, the TGI in test [7], in [8], in test [9] and in test [10] was more than 25 µM throughout.
Turning to `Cc1ccc(O)cc1Nc1ccnc2ccc(S(C)(=O)=O)cc12`, the GI50 in [1] is 0.507 µM; in [2] it was 0.478 µM; in test [3], 4.92 µM; in test [4], 7.66 µM; in test [5], 1.08 µM; in test [6], 5.97 µM. In addition, the GI50 is 0.433 µM in test [7], 0.74 µM in test [8], 3.53 µM in test [9] and more than 25 µM in test [10]. Besides, the TGI in test [1] was 4.68 µM; in test [2], 2.12 µM; in [3], more than 25 µM; in [4], more than 25 µM; in test [5], 7.62 µM; in test [6] it was more than 25 µM. For the same molecule, the TGI in test [7] is 2.92 µM; in test [8], 5.12 µM; in [9] it was 16.4 µM; in [10] it was more than 25 µM.
For `CC1=C(C(=O)Nc2ccccc2)C(c2ccc(N(C)C)cc2)C(C(=O)Nc2ccccc2)=C(C)N1`, the TGI in test [1] was more than 100 µM; in test [2], more than 88.3 µM; in test [3], more than 26.7 µM; in [4], more than 100 µM; in test [5], more than 100 µM; in test [6], more than 100 µM. For the same molecule, the TGI in [7] is more than 75.8 µM; in test [8], more than 100 µM; in test [9], more than 100 µM; in test [10] it was more than 100 µM.
For `Cc1cc(O)c2c(c1)C(=O)C=CC2=O`, the TGI in [1] was 25.3 µM and 18.6 µM; in [2] it was 27.4 µM and 24.1 µM; in test [3] it was 11.7 µM and 4.25 µM; in test [4] it was 46.7 µM and 31.2 µM; in [5], 31.4 µM and 30.8 µM; in [6], 27.9 µM and 23 µM. Also, the TGI in [7] was 12.3 µM and 21.3 µM; in test [8], 13 µM and 6.47 µM; in test [9] it was 43.9 µM and 14.8 µM; in test [10], 11.3 µM and 21.8 µM. The GI50 in [3] was 4.8 µM and 1.93 µM; in test [8] it was 5.57 µM and 2.21 µM; in test [9], 14.1 µM and 4.75 µM.
On to `COc1cc2c(N3CCN(C(=O)Nc4ccc(OC(C)C)cc4)CC3)ncnc2cc1OCCCN1CCCCC1`, for which the GI50 is 14.4 µM in [1]; 31.8 µM in [2]; 13.8 µM in test [3]; 22.2 µM in test [4]; 6.43 µM in test [5]; 14.6 µM in [6]. Further, the GI50 is 6.59 µM in test [7], 17.4 µM in [8], 20.9 µM in test [9] and 13.4 µM in test [10]. In addition, the TGI in test [1] was 32.4 µM; in test [2] it was 97.7 µM; in test [3], 29.9 µM; in [4], more than 100 µM; in test [5], 22.3 µM; in [6], 39.1 µM. The TGI in [7] was 26.4 µM; in test [8] it was more than 54.9 µM; in test [9], 99.2 µM; in test [10], 36.6 µM.

Values taken from PubChem BioAssay (NCI).
